Measured values as given in ChEMBL document CHEMBL4330124, “Discovery of an Orally Available Janus Kinase 3 Selective Covalent Inhibitor” (J Med Chem, 2019).
The source made the active and inactive calls. The rule behind the calls is not given here.

Key:
[1] = tested on: PBMC; assay: Effect on IL6-induced MCP1 production in human PBMC at 100 to 6000 nM preincubated for 2 hrs followed by IL6 stimulation measured after 24 hrs by ELISA; format: functional, cell-based
[2] = Clearance in ICR mouse at 5 mg/kg, po via gavage by LC/MS/MS analysis; format: ADME, organism-based; conditions: in vivo
[3] = biological target: Epidermal growth factor receptor (Homo sapiens) (UniProt P00533); assay: Inhibition of EGFR (unknown origin) at 1 uM after 60 mins by Z-LYTE assay
[4] = species on record: Homo sapiens; assay: Inhibition of IL10/JAK/STAT3 signaling in human PBMC assessed as reduction in LPS-induced TNFalpha production at 100 nM preincubated for 2 hrs followed by LPS stimulation measured after 24 hrs by ELISA
[5] = species on record: Homo sapiens; assay: Inhibition of IL10/JAK/STAT3 signaling in human PBMC assessed as reduction in LPS-induced IL6 production at 100 nM preincubated for 2 hrs followed by LPS stimulation measured after 24 hrs by ELISA
[6] = biological target: Protein kinase C alpha type (Homo sapiens) (UniProt P17252); assay: Inhibition of PKCalpha (unknown origin) at 1 uM after 60 mins by Z-LYTE assay relative to control
[7] = biological target: Glycogen synthase kinase-3 beta (Homo sapiens) (UniProt P49841); assay: Inhibition of GSK3beta (unknown origin) at 1 uM after 60 mins by Z-LYTE assay relative to control
[8] = biological target: Tyrosine-protein kinase BTK (Homo sapiens) (UniProt Q06187); assay: Inhibition of BTK (unknown origin) at 1 uM after 60 mins by Z-LYTE assay
[9] = biological target: T1, Tyrosine-protein kinase ITK/TSK (Homo sapiens) (UniProt Q08881); assay: Inhibition of ITK (unknown origin) at 1 uM after 60 mins by Z-LYTE assay
T1 sequence (whole entry): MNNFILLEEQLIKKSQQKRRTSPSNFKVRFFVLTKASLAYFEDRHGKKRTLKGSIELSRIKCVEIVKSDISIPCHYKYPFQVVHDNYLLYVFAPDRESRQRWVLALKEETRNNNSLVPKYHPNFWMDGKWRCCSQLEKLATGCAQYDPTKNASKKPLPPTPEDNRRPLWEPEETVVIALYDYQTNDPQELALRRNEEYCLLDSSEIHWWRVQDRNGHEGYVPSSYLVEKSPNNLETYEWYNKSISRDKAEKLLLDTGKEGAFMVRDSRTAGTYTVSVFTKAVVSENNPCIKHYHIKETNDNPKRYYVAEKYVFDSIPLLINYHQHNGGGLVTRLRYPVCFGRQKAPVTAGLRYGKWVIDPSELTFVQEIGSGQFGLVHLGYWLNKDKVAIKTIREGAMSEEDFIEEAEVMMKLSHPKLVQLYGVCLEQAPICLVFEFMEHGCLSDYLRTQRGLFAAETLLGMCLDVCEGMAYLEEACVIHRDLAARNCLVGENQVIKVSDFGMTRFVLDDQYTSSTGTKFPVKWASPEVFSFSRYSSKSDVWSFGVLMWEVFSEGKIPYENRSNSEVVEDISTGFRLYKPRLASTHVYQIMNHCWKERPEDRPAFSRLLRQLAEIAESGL

[10] = biological target: Protein kinase C gamma type (Homo sapiens) (UniProt P05129); assay: Inhibition of PKCgamma (unknown origin) at 1 uM after 60 mins by Z-LYTE assay relative to control

Sequence of Tyrosine-protein kinase BTK (Homo sapiens) (Q06187 whole entry): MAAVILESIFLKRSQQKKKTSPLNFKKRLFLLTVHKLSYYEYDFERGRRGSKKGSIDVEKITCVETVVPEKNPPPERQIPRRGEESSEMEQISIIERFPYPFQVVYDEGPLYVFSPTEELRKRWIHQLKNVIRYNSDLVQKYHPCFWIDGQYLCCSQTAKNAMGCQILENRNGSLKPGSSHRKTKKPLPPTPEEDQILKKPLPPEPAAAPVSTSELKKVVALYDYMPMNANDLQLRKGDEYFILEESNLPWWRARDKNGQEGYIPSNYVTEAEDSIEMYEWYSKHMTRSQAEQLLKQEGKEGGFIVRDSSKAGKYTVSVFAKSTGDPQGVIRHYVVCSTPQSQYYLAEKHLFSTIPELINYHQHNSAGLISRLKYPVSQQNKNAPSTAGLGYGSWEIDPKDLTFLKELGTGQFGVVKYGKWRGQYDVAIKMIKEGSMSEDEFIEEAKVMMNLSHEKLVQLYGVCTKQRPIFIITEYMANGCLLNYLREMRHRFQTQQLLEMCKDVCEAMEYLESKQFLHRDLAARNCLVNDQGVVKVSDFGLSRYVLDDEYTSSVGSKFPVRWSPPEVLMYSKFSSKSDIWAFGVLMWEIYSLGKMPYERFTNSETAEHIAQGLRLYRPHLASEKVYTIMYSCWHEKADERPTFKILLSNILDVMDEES
Sequence of Epidermal growth factor receptor (Homo sapiens) (P00533 whole entry): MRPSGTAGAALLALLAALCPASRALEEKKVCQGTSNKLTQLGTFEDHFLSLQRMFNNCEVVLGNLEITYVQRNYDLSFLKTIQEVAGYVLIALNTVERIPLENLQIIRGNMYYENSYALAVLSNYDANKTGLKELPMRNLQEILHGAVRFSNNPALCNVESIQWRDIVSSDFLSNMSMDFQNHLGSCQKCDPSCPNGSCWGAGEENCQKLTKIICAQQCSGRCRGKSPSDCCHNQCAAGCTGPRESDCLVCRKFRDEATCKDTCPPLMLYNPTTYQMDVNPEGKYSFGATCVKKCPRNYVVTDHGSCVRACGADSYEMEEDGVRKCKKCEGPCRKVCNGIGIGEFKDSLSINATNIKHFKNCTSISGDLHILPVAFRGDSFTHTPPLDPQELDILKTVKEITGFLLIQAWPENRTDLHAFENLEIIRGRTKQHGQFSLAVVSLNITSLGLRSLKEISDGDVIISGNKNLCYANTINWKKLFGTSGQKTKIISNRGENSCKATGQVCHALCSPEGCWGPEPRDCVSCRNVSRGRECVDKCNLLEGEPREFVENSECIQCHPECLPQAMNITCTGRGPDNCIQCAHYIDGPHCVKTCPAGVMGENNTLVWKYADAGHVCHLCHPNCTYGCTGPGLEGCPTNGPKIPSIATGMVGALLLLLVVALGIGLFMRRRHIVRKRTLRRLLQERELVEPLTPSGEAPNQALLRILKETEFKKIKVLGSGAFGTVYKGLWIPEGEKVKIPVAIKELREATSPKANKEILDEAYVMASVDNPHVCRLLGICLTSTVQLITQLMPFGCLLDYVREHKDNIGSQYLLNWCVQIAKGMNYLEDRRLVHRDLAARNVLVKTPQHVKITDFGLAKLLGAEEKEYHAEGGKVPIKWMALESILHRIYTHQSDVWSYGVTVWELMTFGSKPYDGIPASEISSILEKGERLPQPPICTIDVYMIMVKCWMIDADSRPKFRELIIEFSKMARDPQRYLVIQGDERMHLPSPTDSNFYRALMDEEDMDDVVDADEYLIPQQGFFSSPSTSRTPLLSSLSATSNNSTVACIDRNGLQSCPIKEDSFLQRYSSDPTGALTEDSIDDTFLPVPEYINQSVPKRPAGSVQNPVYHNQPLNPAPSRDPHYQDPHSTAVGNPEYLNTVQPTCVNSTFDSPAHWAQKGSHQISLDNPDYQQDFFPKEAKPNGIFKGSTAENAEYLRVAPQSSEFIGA
Sequence of Glycogen synthase kinase-3 beta (Homo sapiens) (P49841 whole entry, looked up): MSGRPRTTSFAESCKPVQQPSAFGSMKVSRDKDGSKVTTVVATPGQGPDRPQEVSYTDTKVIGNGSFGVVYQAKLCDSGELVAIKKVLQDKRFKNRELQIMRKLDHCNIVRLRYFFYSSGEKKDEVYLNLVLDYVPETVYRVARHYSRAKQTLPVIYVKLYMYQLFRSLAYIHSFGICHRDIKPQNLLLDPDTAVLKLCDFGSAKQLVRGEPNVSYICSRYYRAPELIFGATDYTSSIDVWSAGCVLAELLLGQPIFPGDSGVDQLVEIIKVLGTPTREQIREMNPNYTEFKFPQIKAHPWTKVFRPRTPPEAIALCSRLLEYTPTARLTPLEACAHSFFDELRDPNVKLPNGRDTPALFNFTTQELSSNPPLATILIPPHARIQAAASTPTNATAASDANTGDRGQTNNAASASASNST

Structure (SMILES)	Activity [1]	CL/F [2] [mL/min/kg]	inhibition [3]	inhibition [4]	inhibition [5]	inhibition [6] [%]	inhibition [7] [%]	inhibition [8]	inhibition [9]	inhibition [10] [%]
C=CC(=O)N1CCN(c2ccc([N+](=O)[O-])c(C3=C(c4c[nH]c5ccccc45)C(=O)NC3=O)c2)CC1	inactive	138	Active	Active	Active	> 80	> 80	Active	Active	> 80
C=CC(=O)N1C[C@H](Nc2ncnc3[nH]ccc23)CC[C@@H]1C	inactive	–	–	Active	Active	–	–	–	–	–
CC(C)(O)C(=O)N1CCN(c2ccc(C(F)(F)F)c(C3=C(c4c[nH]c5ccccc45)C(=O)NC3=O)c2)CC1	inactive	–	–	Active	Active	–	–	–	–	–
